According to PMC6274539, “Photoactivatable Caged Prodrugs of VEGFR-2 Kinase Inhibitors” (Molecules, 2016):

How the values were obtained:
Assay in all cases: kinase profiling, radioactive filter binding assay
Format in all cases: biochemical
[1] = target: Aurora B (Homo sapiens, UniProt Q96GD4); conditions: 0.1 µM compound, assay duplicates; read-out: residual activity of Aurora B, mean percentage activity
Method: (§1) The used method was a radioactive filter binding assay using ^33P ATP, for details see references. The substances were dissolved in DMSO at tested concentration of 0.1 µM. The mean percentage residual kinase activity and standard deviations of assay duplicates were determined. Analyses were performed by the International Center for Kinase Profiling at the University of Dundee, UK.

[2] = target: BRSK2 (Homo sapiens, UniProt Q8IWQ3); conditions: 0.1 µM compound, assay duplicates; read-out: residual activity of BRSK2, mean percentage activity
Method: as §1

[3] = target: CAMK1 (Homo sapiens, UniProt Q14012); conditions: 0.1 µM compound, assay duplicates; read-out: residual activity of CAMK1, mean percentage activity
Method: as §1

[4] = target: CK2 (Homo sapiens, UniProt P68400); conditions: 0.1 µM compound, assay duplicates; read-out: residual activity of CK2, mean percentage activity
Method: as §1

[5] = target: CSK (Homo sapiens, UniProt P41240); conditions: 0.1 µM compound, assay duplicates; read-out: residual activity of CSK, mean percentage activity
Method: as §1

[6] = target: DYRK1A (Homo sapiens, UniProt Q13627); conditions: 0.1 µM compound, assay duplicates; read-out: residual activity of DYRK1A, mean percentage activity
Method: as §1

[7] = target: ERK2 (Homo sapiens, UniProt P28482); conditions: 0.1 µM compound, assay duplicates; read-out: residual activity of ERK2, mean percentage activity
Method: as §1

[8] = target: ERK8 (Homo sapiens, UniProt Q8TD08); conditions: 0.1 µM compound, assay duplicates; read-out: residual activity of ERK8, mean percentage activity
Method: as §1

[9] = target: HIPK2 (Homo sapiens, UniProt Q9H2X6); conditions: 0.1 µM compound, assay duplicates; read-out: residual activity of HIPK2, mean percentage activity
Method: as §1

[10] = target: IKKb (Homo sapiens, UniProt O14920); conditions: 0.1 µM compound, assay duplicates; read-out: residual activity of IKKb, mean percentage activity
Method: as §1

[11] = target: JNK2 (Homo sapiens, UniProt P45984); conditions: 0.1 µM compound, assay duplicates; read-out: residual activity of JNK2, mean percentage activity
Method: as §1

[12] = target: Lck (Homo sapiens, UniProt P06239); conditions: 0.1 µM compound, assay duplicates; read-out: residual activity of Lck, mean percentage activity
Method: as §1

[13] = target: MELK (Homo sapiens, UniProt Q14680); conditions: 0.1 µM compound, assay duplicates; read-out: residual activity of MELK, mean percentage activity
Method: as §1

[14] = target: MNK2 (Homo sapiens, UniProt Q9HBH9); conditions: 0.1 µM compound, assay duplicates; read-out: residual activity of MNK2, mean percentage activity
Method: as §1

[15] = target: MSK1 (Homo sapiens, UniProt O75582); conditions: 0.1 µM compound, assay duplicates; read-out: residual activity of MSK1, mean percentage activity
Method: as §1

[16] = target: NEK6 (Homo sapiens, UniProt Q9HC98); conditions: 0.1 µM compound, assay duplicates; read-out: residual activity of NEK6, mean percentage activity
Method: as §1

[17] = target: PAK5 (Homo sapiens, UniProt Q9P286); conditions: 0.1 µM compound, assay duplicates; read-out: residual activity of PAK5, mean percentage activity
Method: as §1

[18] = target: PDK1 (Homo sapiens, UniProt O15530); conditions: 0.1 µM compound, assay duplicates; read-out: residual activity of PDK1, mean percentage activity
Method: as §1

[19] = tested on: PHK; conditions: 0.1 µM compound, assay duplicates
Method: as §1

[20] = target: PIM2 (Homo sapiens, UniProt Q9P1W9); conditions: 0.1 µM compound, assay duplicates; read-out: residual activity of PIM2, mean percentage activity
Method: as §1

[21] = target: PKA (Homo sapiens, UniProt P17612); conditions: 0.1 µM compound, assay duplicates; read-out: residual activity of PKA, mean percentage activity
Method: as §1

[22] = target: PKD1 (Homo sapiens, UniProt Q15139); conditions: 0.1 µM compound, assay duplicates; read-out: residual activity of PKD1, mean percentage activity
Method: as §1

[23] = target: PLK1 (Homo sapiens, UniProt P53350); conditions: 0.1 µM compound, assay duplicates; read-out: residual activity of PLK1, mean percentage activity
Method: as §1

[24] = target: ROCK 2 (Homo sapiens, UniProt O75116); conditions: 0.1 µM compound, assay duplicates; read-out: residual activity of ROCK 2, mean percentage activity
Method: as §1

[25] = target: Src (Homo sapiens, UniProt P12931); conditions: 0.1 µM compound, assay duplicates; read-out: residual activity of Src, mean percentage activity
Method: as §1

[26] = target: TBK1 (DU12569) (Homo sapiens, UniProt Q9UHD2); conditions: 0.1 µM compound, assay duplicates; read-out: residual activity of TBK1 (DU12569), mean percentage activity
Method: as §1

[27] = target: p38a MAPK (Homo sapiens, UniProt Q16539); conditions: 0.1 µM compound, assay duplicates; read-out: residual activity of p38a MAPK, mean percentage activity
Method: as §1

Sequence of MNK2 (Q9HBH9 whole entry): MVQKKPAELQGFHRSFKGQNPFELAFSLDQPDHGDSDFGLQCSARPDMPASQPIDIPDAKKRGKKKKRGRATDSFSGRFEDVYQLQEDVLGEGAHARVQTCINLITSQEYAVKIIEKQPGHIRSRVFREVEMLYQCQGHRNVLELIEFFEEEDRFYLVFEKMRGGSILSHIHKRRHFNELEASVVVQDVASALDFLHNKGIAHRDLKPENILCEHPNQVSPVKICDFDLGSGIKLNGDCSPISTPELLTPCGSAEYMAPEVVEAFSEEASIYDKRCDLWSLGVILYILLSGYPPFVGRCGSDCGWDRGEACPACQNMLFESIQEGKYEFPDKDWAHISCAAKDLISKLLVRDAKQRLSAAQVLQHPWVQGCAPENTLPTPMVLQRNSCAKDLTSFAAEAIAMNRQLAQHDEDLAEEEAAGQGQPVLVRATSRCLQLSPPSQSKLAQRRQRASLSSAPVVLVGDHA
Sequence of ROCK 2 (O75116 whole entry): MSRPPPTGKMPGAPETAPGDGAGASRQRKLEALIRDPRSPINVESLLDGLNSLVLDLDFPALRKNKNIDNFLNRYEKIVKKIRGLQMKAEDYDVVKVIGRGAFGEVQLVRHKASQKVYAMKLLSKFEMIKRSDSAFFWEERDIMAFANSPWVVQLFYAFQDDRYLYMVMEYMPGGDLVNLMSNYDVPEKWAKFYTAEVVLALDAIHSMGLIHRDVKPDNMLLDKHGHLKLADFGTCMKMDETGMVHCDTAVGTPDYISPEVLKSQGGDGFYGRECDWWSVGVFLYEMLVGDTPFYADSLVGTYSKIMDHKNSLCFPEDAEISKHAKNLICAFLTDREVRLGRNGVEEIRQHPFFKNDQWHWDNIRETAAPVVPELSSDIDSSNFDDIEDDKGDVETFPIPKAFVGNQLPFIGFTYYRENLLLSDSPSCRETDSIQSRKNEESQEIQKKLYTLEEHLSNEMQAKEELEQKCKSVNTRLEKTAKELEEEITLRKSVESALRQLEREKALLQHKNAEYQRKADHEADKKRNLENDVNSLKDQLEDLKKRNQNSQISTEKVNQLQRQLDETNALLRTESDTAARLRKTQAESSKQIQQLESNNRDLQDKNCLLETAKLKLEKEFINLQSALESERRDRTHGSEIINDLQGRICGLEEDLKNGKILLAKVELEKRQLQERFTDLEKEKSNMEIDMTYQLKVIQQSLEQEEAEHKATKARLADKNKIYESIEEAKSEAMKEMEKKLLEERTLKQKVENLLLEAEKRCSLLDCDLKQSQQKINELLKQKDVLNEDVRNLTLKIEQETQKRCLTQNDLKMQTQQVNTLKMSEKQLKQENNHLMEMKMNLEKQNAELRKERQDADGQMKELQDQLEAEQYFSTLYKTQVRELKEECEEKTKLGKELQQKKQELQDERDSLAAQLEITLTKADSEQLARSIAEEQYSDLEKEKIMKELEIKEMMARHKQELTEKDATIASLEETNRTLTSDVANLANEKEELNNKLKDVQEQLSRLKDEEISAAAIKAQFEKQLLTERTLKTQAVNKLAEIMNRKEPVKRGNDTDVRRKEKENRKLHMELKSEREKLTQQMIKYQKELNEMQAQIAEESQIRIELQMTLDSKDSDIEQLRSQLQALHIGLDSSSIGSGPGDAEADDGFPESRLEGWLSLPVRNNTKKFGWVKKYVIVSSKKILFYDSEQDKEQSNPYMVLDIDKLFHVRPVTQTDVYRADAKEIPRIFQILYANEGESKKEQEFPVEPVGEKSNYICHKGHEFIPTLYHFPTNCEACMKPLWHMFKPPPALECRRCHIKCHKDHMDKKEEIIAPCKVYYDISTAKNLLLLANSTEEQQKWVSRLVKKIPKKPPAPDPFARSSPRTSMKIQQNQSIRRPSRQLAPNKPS
Sequence of CK2 (P68400 whole entry): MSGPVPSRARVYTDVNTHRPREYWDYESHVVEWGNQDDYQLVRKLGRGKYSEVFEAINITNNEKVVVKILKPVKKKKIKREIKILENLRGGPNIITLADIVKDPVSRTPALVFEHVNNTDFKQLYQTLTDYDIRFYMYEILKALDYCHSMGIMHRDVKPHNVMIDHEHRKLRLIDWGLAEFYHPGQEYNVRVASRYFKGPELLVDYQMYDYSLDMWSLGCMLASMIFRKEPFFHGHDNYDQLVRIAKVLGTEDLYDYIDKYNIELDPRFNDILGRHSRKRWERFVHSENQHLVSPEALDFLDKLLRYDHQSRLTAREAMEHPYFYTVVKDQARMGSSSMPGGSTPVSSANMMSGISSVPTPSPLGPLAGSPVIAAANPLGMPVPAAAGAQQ
Sequence of CAMK1 (Q14012 whole entry): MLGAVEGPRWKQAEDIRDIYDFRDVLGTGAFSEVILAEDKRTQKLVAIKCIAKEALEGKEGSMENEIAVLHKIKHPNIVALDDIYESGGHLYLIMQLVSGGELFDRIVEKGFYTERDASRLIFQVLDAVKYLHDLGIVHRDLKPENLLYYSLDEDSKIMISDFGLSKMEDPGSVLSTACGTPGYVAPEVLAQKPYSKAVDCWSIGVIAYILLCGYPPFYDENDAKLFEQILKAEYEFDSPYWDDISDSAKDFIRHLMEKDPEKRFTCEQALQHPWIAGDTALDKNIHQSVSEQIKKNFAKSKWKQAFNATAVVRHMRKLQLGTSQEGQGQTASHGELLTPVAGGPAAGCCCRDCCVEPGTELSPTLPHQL
Sequence of HIPK2 (Q9H2X6 whole entry): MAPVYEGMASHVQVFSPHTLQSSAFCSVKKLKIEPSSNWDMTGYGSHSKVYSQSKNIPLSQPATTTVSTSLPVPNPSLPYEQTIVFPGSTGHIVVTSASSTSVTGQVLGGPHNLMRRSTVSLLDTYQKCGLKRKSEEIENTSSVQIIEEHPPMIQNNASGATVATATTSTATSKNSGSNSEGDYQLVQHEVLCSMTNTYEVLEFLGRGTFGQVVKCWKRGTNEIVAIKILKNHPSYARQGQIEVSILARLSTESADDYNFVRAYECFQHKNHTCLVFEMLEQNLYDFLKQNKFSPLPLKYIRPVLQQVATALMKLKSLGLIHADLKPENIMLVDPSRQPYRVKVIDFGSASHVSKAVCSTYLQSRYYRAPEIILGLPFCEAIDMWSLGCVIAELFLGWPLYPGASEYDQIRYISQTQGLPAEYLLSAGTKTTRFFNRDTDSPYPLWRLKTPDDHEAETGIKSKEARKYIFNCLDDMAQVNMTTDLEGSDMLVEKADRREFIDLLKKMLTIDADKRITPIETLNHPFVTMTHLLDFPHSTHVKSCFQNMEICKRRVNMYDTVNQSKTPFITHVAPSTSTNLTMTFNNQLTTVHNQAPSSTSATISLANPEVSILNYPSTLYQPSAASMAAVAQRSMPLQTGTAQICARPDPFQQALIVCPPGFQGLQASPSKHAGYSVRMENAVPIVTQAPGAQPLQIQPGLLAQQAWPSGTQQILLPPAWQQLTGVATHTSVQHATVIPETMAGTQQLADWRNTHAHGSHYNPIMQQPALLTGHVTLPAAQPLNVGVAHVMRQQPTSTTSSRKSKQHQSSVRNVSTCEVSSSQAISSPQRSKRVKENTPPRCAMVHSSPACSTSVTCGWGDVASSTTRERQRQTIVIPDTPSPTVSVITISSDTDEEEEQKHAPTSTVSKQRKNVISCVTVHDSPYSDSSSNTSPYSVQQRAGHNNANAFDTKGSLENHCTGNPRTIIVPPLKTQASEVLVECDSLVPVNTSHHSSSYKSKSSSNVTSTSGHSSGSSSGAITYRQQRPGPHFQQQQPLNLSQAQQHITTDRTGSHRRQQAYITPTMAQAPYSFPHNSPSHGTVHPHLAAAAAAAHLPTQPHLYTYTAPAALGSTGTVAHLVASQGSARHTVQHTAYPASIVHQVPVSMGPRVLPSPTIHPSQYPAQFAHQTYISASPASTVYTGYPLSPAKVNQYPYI
Sequence of NEK6 (Q9HC98 whole entry): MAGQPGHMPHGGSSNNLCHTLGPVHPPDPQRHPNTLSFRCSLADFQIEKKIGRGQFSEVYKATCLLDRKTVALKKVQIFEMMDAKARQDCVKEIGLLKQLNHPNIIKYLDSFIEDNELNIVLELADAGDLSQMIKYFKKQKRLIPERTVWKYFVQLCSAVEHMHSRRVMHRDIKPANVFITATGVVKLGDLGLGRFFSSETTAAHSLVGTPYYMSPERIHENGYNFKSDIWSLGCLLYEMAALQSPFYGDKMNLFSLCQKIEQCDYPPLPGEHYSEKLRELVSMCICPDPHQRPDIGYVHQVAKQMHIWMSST
Sequence of p38a MAPK (Q16539 whole entry): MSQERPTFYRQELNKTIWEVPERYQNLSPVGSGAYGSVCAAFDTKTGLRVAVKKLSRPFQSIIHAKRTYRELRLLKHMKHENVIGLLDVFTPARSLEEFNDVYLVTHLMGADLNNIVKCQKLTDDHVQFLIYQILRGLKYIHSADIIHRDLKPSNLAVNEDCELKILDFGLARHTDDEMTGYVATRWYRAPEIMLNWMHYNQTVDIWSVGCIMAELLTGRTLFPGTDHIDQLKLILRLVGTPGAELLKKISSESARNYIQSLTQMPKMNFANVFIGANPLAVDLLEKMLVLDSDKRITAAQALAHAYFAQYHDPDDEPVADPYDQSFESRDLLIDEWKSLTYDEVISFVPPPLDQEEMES
Sequence of Src (P12931 whole entry): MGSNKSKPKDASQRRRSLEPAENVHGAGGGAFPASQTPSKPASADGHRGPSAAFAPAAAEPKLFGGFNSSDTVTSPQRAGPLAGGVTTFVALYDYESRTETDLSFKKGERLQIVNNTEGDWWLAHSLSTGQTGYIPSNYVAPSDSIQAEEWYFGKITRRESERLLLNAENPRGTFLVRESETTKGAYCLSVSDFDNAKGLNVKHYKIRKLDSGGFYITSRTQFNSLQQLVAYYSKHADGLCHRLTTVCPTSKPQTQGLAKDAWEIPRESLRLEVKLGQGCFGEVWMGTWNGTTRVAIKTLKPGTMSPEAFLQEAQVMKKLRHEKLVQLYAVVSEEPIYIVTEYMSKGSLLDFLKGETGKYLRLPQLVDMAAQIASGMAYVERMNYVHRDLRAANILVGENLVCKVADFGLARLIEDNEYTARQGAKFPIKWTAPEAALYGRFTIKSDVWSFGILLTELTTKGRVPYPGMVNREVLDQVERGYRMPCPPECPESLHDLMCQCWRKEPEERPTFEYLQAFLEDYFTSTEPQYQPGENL

Question: COc1cc(C2=C(c3c[nH]c4ccccc34)C(=O)NC2=O)cc(OC)c1OC [Compound 1, 3-(1H-Indol-3-yl)-4-(3,4,5-trimethoxyphenyl)-1H-pyrrole-2,5-dione] was tested. Which remaining activity at 0.1 µM [1] did it give?
Answer: The remaining activity at 0.1 µM was 84%.

Question: What about the remaining activity at 0.1 µM [2] of the same compound?
Answer: The remaining activity at 0.1 µM was 94%.

Question: What about the remaining activity at 0.1 µM [3] of the same compound?
Answer: Its remaining activity at 0.1 µM is 107%.

Question: And the remaining activity at 0.1 µM [4]?
Answer: The remaining activity at 0.1 µM was 94%.

Question: And the remaining activity at 0.1 µM [5]?
Answer: Its remaining activity at 0.1 µM is 138%.

Question: What about the remaining activity at 0.1 µM [6] of the same compound?
Answer: Its remaining activity at 0.1 µM is 73%.

Question: And the remaining activity at 0.1 µM [7]?
Answer: The remaining activity at 0.1 µM was 94%.

Question: What about the remaining activity at 0.1 µM [8] of the same compound?
Answer: Its remaining activity at 0.1 µM is 46%.

Question: What about the remaining activity at 0.1 µM [9] of the same compound?
Answer: Its remaining activity at 0.1 µM is 23%.

Question: What about the remaining activity at 0.1 µM [10] of the same compound?
Answer: Its remaining activity at 0.1 µM is 102%.

Question: What about the remaining activity at 0.1 µM [11] of the same compound?
Answer: The remaining activity at 0.1 µM was 78%.

Question: What about the remaining activity at 0.1 µM [12] of the same compound?
Answer: The remaining activity at 0.1 µM was 91%.

Question: What about the remaining activity at 0.1 µM [13] of the same compound?
Answer: The remaining activity at 0.1 µM was 74%.

Question: And the remaining activity at 0.1 µM [14]?
Answer: Its remaining activity at 0.1 µM is 90%.

Question: What about the remaining activity at 0.1 µM [15] of the same compound?
Answer: The remaining activity at 0.1 µM was 69%.

Question: What about the remaining activity at 0.1 µM [16] of the same compound?
Answer: Its remaining activity at 0.1 µM is 96%.

Question: And the remaining activity at 0.1 µM [17]?
Answer: Its remaining activity at 0.1 µM is 105%.

Question: What about the remaining activity at 0.1 µM [18] of the same compound?
Answer: Its remaining activity at 0.1 µM is 68%.

Question: What about the “residual activity of PHK, mean percentage activity” value [19] of the same compound?
Answer: Its value is 73%.

Question: What about the remaining activity at 0.1 µM [20] of the same compound?
Answer: The remaining activity at 0.1 µM was 115%.

Question: And the remaining activity at 0.1 µM [21]?
Answer: Its remaining activity at 0.1 µM is 93%.

Question: And the remaining activity at 0.1 µM [22]?
Answer: Its remaining activity at 0.1 µM is 100%.

Question: What about the remaining activity at 0.1 µM [23] of the same compound?
Answer: Its remaining activity at 0.1 µM is 79%.

Question: And the remaining activity at 0.1 µM [24]?
Answer: The remaining activity at 0.1 µM was 97%.

Question: What about the remaining activity at 0.1 µM [25] of the same compound?
Answer: Its remaining activity at 0.1 µM is 81%.

Question: What about the remaining activity at 0.1 µM [26] of the same compound?
Answer: Its remaining activity at 0.1 µM is 88%.

Question: What about the remaining activity at 0.1 µM [27] of the same compound?
Answer: Its remaining activity at 0.1 µM is 89%.

Question: Which remaining activity at 0.1 µM [1] does the source give for COc1cc2c3c(c4c5ccccc5[nH]c4c2c(OC)c1OC)C(=O)NC3=O [Compound 3, 5,6,7-Trimethoxybenzo[a]pyrrolo[3,4-c]carbazole-1,3(2H,8H)-dione] here?
Answer: Its remaining activity at 0.1 µM is 47%.

Question: What about the remaining activity at 0.1 µM [2] of the same compound?
Answer: The remaining activity at 0.1 µM was 66%.

Question: And the remaining activity at 0.1 µM [3]?
Answer: Its remaining activity at 0.1 µM is 94%.

Question: And the remaining activity at 0.1 µM [4]?
Answer: Its remaining activity at 0.1 µM is 91%.

Question: And the remaining activity at 0.1 µM [5]?
Answer: Its remaining activity at 0.1 µM is 99%.

Question: What about the remaining activity at 0.1 µM [6] of the same compound?
Answer: The remaining activity at 0.1 µM was 26%.

Question: What about the remaining activity at 0.1 µM [7] of the same compound?
Answer: Its remaining activity at 0.1 µM is 93%.

Question: What about the remaining activity at 0.1 µM [8] of the same compound?
Answer: The remaining activity at 0.1 µM was 11%.

Question: What about the remaining activity at 0.1 µM [9] of the same compound?
Answer: Its remaining activity at 0.1 µM is 7%.

Question: What about the remaining activity at 0.1 µM [10] of the same compound?
Answer: The remaining activity at 0.1 µM was 113%.

Question: And the remaining activity at 0.1 µM [11]?
Answer: The remaining activity at 0.1 µM was 93%.

Question: What about the remaining activity at 0.1 µM [12] of the same compound?
Answer: The remaining activity at 0.1 µM was 91%.

Question: What about the remaining activity at 0.1 µM [13] of the same compound?
Answer: Its remaining activity at 0.1 µM is 55%.

Question: What about the remaining activity at 0.1 µM [14] of the same compound?
Answer: Its remaining activity at 0.1 µM is 81%.

Question: And the remaining activity at 0.1 µM [15]?
Answer: The remaining activity at 0.1 µM was 55%.

Question: And the remaining activity at 0.1 µM [16]?
Answer: The remaining activity at 0.1 µM was 104%.

Question: What about the remaining activity at 0.1 µM [17] of the same compound?
Answer: The remaining activity at 0.1 µM was 84%.

Question: And the remaining activity at 0.1 µM [18]?
Answer: The remaining activity at 0.1 µM was 39%.

Question: What about the “residual activity of PHK, mean percentage activity” value [19] of the same compound?
Answer: The value was 41%.

Question: And the remaining activity at 0.1 µM [20]?
Answer: Its remaining activity at 0.1 µM is 115%.

Question: What about the remaining activity at 0.1 µM [21] of the same compound?
Answer: The remaining activity at 0.1 µM was 90%.

Question: What about the remaining activity at 0.1 µM [22] of the same compound?
Answer: Its remaining activity at 0.1 µM is 60%.

Question: What about the remaining activity at 0.1 µM [23] of the same compound?
Answer: The remaining activity at 0.1 µM was 49%.

Question: What about the remaining activity at 0.1 µM [24] of the same compound?
Answer: Its remaining activity at 0.1 µM is 88%.

Question: What about the remaining activity at 0.1 µM [25] of the same compound?
Answer: The remaining activity at 0.1 µM was 86%.

Question: And the remaining activity at 0.1 µM [26]?
Answer: The remaining activity at 0.1 µM was 73%.

Question: And the remaining activity at 0.1 µM [27]?
Answer: The remaining activity at 0.1 µM was 78%.
